{"source": "patent US20220184072A1", "about": "(priority 2019, published 2022)", "system": "STZ-diabetic rats", "experiment": "STZ-rat model, cold allodynia response", "assay_type": "in vivo", "protocol": "The compound of Example 1 is also tested in an STZ-rat model of neuropathic pain. Briefly, adult female rats are made diabetic by treatment with streptozotocin (STZ), an alkylating neoplastic agent which is particularly toxic to the insulin-producing beta cells of the pancreas. The resulting type-I diabetes in the rats leads to the development of diabetic neuropathy over a 3 to 6-week period. […] Once diabetic neuropathy has been induced, the rats may be treated to determine the analgesic effect of compounds.\nPaw cold response threshold is a clinical assessment of cold pain perception. A rigid filament with a thermoelectric cooling system is used to stimulate the plantar surface of the hind paw for 5 seconds. The stimulus is repeated ten times at 2 to 5-minute intervals. The number of paw withdrawal responses is recorded and converted to a response frequent figure (%). This procedure is repeated at a variety of temperatures. […] At a stimulus temperature of 20° C. or 15° C., the response frequency is found to be substantially the same between STZ-treated rats and control rats (from about 10-20% response). In contrast, at a stimulus temperature of 10° C. or below, there is a substantial divergence of frequency response. In control rats, a stimulus temperature of 10° C. results in about 10% response frequency, while at 5° C., this increases to about 40% response frequency. In contrast, STZ-treated rats show a response frequency of about 60% at 10° C., and about 80% at 5° C. […] A stable cold allodynia response is observed 4-12 weeks after induction of diabetes.\nThe cold allodynia response test is performed at 0 hours, 1 hour, 2 hours, 4 hours and 6 hours, as described above, using a 10° C. stimulus temperature. The injection vehicle is pure polyethylene glycol-400 (PEG400)."}
{"smiles": "O=C1CN2c3c(cccc3[C@@H]3CN(CCCOc4ccc(F)cc4)CC[C@@H]32)N1", "note": "[Example 1, (6bR,10aS)-8-(3-(4-fluorophenoxy)propyl)-6b,7,8,9,10,10a-hexahydro-1H-pyrido[3′,4′:4,5]pyrrolo[1,2,3-de]quinoxalin-2(3H)-one]", "values": [{"measurement": "cold response frequency", "setting": "1 mg/kg s.c., 1 hour", "result": "~35", "unit": "%"}, {"measurement": "cold response frequency", "setting": "1 mg/kg s.c., 4 hours", "result": "about 70%"}, {"measurement": "cold response frequency", "setting": "1 mg/kg s.c., 6 hours", "result": "about 75%"}, {"measurement": "cold response frequency", "setting": "3 mg/kg s.c., 1 hour", "result": "about 10%"}, {"measurement": "cold response frequency", "setting": "3 mg/kg s.c., 4 hours", "result": "about 65%"}, {"measurement": "cold response frequency", "setting": "3 mg/kg s.c., 6 hours", "result": 75, "unit": "%"}, {"measurement": "cold response frequency", "setting": "10 mg/kg s.c., 1 hour", "result": "about 15%"}, {"measurement": "cold response frequency", "setting": "10 mg/kg s.c., 2 hours", "result": "about 10%"}, {"measurement": "cold response frequency", "setting": "10 mg/kg s.c., 4 hours", "result": "about 20%"}, {"measurement": "cold response frequency", "setting": "10 mg/kg s.c., 6 hours", "result": "about 40%"}]}
